Source: paper PMC7615676, “Short-course combination treatment for experimental chronic Chagas disease” (Science translational medicine, 2023)
Like-named read-outs stand apart in the source and are kept apart here.

Assays:
[1] = chromatographic LogD assay; type: physicochemical; details: reversed phase HPLC column (Gemini NX C18), pH 7.4; read-out: Chrom logD pH 7.4
Protocol: The chromatographic hydrophobicity index (CHI) values were measured using reversed phase HPLC column (50 mm × 2 mm, 3 μm Gemini NX C18, Phenomenex, U.K.) with fast acetonitrile gradient at starting mobile phase at pH 7.4. CHI values were derived directly from the gradient retention times by using a calibration line obtained for standard compounds. The CHI value approximates to the volume % organic concentration when the compound elutes. CHI was linearly transformed into ChromlogD by least-squares fitting of experimental CHI values to calculated log P (ClogP) values for over 20K research compounds using the following formula: ChromlogD = 0.0857CHI − 2.00. The average error of the assay is ±3 CHI units or ± 0.25 ChromlogD.

[2] = system: T. cruzi culture derived trypomastigotes, strain Silvio X10/7 A1; assay: trypomastigote assay; type: cell-based; details: Trypanosoma cruzi
Protocol: Trypomastigote assays using strain Silvio X10/7 subclone A1 were carried out as described in ([19]). Parasite culture and potency determinations for panel of strains were performed as in ([19]). Strains used were M6241 clone 6 (DTU III), ERA clone 2 (DTU IV), PAH179 clone 5 (DTU V) and CL Brener-Luciferase (PpyRE9h-expressing T. cruzi, same strain that is used in animal model studies ([67])) (DTU VI). […] For Y strain compound exposure time was 3 days. Rate-of-kill assays were carried out as described in ([39]).

Property Forecast Index = type: physicochemical; details: number of aromatic rings + ChromLogD at pH 7.4
[3] = system: intracellular T. cruzi Silvio X10/7 A1 in Vero cells; assay: washout outgrowth assay; type: cell-based, Trypanosoma cruzi; details: for relapse day after the end of treatment: 50× EC50 for five days
Protocol: Washout outgrowth assay: Vero cells were infected overnight in T600 flasks at a multiplicity of infection (MOI) 5 with T. cruzi Silvio X10/7 A1 trypomastigotes, followed by washing of the Vero monolayer to remove free trypomastigotes. 24 hours later the monolayer was trypsinised, 5.3 x 10^6 Vero cells were plated in T75 tissue culture flasks (in 20 ml MEM-Glutamax (ThermoFisher), 1% Fetal Calf Serum (FCS)), and treatment was started. For ten-day treatments, medium with compounds was replaced after the initial 5 days. For 16 day treatments the compounds were replaced every four days. For compound washout, all medium was aspirated, and flasks were washed three times with 10 ml serum-free MEM medium followed by a final aspiration and addition of 20 ml MEM-Glutamax (ThermoFisher) supplemented with 1% FCS. The cultures were then maintained until trypomastigotes were detected by light microscopy. Medium was replaced twice weekly and prior to each medium replacement microscopic evaluation was carried out (five fields per flask) for up to 60 days post washout. Robustness of the data was confirmed by profiling multiple compounds from the pyrrolopyrimidine series in a single experiment (compounds 2,3 and 4 in Fig. 2 and Fig. S17) as well as comparing results from independent experiments (compound 2 in Fig. 2, Fig. S5 and Fig. S7).

Vero host cells = assay: cytotoxicity against host cells in intracellular amastigote assay; type: cell-based; details: Chlorocebus sabaeus, Vero, host cell cytotoxicity
[4] = system: intracellular T. cruzi amastigotes, strain Silvio X10/7 A1; assay: intracellular T. cruzi amastigote potency assay; type: cell-based; details: Trypanosoma cruzi
[5] = plasma protein binding, equilibrium dialysis; type: in vitro ADME; details: pH 7.4, mouse plasma, read-out: Mouse PPB % (converted)
Protocol: In vitro plasma protein binding was measured in mouse and human plasma using equilibrium dialysis at a nominal concentration of 2 μM. The RED inserts were placed in the 48 wells of the Teflon Plate (Pierce). Samples were prepared by mixing the test compound with plasma at the appropriate concentrations to yield a final drug concentration of 2 μM. Triplicate aliquots of plasma containing compounds at a concentration of 2 μM were pipetted to plasma side (red) of the insert, and PBS (phosphate buffered saline) pH 7.4 was placed into the receiver side (white) of the insert. The plate was covered with the sealing tape and incubated in a 37 °C orbital shaker water bath at approximately 150 rpm for 4 h. Following incubation, samples were prepared in a mixed matrix configuration. Aliquots of samples were pipetted into 96-well plates, and precipitation buffer was added to protein precipitate the samples. Samples were vortexed to mix, then centrifuged for 15 min at 3700 rpm and 4 °C. The supernatant was assayed directly by LC−MS/MS. The following equation was used to calculate the percentage bound drug fraction using this equilibrium dialysis method
% unbound = (buffer chamber]/[plasma chamber) x100

[6] = intrinsic clearance in mouse liver microsomes; type: in vitro ADME; details: for half-life at 0.5 μM: male, CD-1, read-out: T 1/2 mouse
Protocol: (§1) Immediately at time zero and at several serial times points up to 30 min, an aliquot of the incubation mixture was removed and mixed with acetonitrile to stop the reaction. Internal standard was added to all samples, the samples centrifuged to sediment precipitated protein and the plates then sealed prior to HPLC-MS/MS analysis. Metabolic stability expressed as a percentage of the parent molecule was calculated using the peak area ratio (compound peak area/internal standard peak area) of different compounds remaining after each incubation time compared to time zero of the incubation. The half-life (t1/2) was calculated using the following equation: t1/2=−ln(2)/k, where k is the turn-over rate constant of the ln (percent remaining) vs time regression.
(§2) CLint was calculated from the half-life (t1/2) using the following equations:
(§3) CLint (ml/min/g liver) = (0.693/(t1/2) x (ml of incubation/mg microsomal protein) x (mg microsomal protein/g liver).

[7] = intrinsic clearance in human liver microsomes; type: in vitro ADME; details: for half-life at 0.5 μM: read-out: T 1/2 human
Protocol: as §1, §2, §3

T. cruzi CYP51 = T. cruzi CYP51 (Trypanosoma cruzi, UniProt Q7Z1V1); assay: T. cruzi CYP51 biochemical assay
T. cruzi CYP51, sequence (Q7Z1V1 whole entry): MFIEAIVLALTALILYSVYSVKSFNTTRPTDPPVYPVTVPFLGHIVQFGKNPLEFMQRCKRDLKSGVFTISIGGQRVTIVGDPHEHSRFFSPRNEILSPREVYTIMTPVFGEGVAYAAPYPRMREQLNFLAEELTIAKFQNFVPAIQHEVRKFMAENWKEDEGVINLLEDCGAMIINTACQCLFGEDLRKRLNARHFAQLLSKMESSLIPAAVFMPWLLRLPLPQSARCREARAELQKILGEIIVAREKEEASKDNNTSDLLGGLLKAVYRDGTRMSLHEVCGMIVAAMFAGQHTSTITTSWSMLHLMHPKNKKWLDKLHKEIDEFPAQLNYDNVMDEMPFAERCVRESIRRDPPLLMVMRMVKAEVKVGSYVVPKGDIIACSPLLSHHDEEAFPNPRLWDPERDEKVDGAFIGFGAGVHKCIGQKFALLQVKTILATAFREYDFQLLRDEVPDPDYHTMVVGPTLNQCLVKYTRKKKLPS

[8] = system: wild-type T. cruzi epimastigotes; assay: epimastigote drug sensitivity assay, wild-type; type: cell-based; details: Trypanosoma cruzi
Protocol: T. cruzi epimastigotes from the Silvio strain (MHOM/BR/78/Silvio; clone X10/7A) were grown at 28°C in RTH/FBS medium ([80]).
T. cruzi epimastigote assays carried out as described previously ([43]).

[9] = target: T. cruzi complex III (epimastigote lysates) (Trypanosoma cruzi, UniProt Q9T479); assay: T. cruzi complex III assay; type: biochemical; details: decylubiquinol substrate
T. cruzi complex III (epimastigote lysates), sequence (Q9T479 entry or part of it, one chain of several): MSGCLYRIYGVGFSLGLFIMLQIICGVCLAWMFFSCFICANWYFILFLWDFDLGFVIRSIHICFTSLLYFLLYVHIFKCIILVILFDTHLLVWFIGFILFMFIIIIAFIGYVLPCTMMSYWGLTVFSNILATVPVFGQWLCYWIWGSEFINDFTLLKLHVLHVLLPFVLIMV
Protocol: Complex III activity within these lysates was monitored in the presence and absence of compound 3, compound 5 and related analogues from this series, using decylubiquinol as a pseudo-substrate ([43]).
Measurement of complex III activity and inhibition were performed as described previously ([43]).

[10] = read-out: Trypomastigotes pEC50 (converted)
[11] = read-out: Vero pEC50 (converted)
[12] = intracellular amastigotes Silvio X10/7 A1, 96 h, ± SD, min. three experiments, read-out: Amastigotes pEC50 (converted)
[13] = Table 2, wild-type epimastigotes, read-out: EC50 WT

With `O=C(Cn1ccnc1[N+](=O)[O-])NCc1ccccc1` [Benznidazole, reference compound] the chromatographic logD [1] was 2.3, the EC50 ([2]; read-out: Trypomastigotes EC50) was 4 µM and the EC50 [2, 10] was 3.98 µM. The PFI (Property Forecast Index) was 4.3, the “relapse day after the end of treatment” value [3] was 14 days and the “relapse day after compound washout” value ([3]; ten-day treatment) was “no relapse”. For the same molecule, the EC50 (Vero host cells; read-out: Vero EC50) was over 50 µM, the EC50 (Vero host cells; [11]) was over 50.1 µM and the EC50 [4, 12] was 2 µM. For the same molecule, the EC50 ([4]; read-out: Amastigotes EC50) was 2 µM.

For `COc1cc(F)ccc1-c1c(C)[nH]c2nc(N)nc(C)c12` [Compound 2, 5-(4-Fluoro-2-methoxyphenyl)-4,6-dimethyl-7H-pyrrolo[2,3-d]pyrimidin-2-amine], the fraction unbound at 4 h, 2 μM [5] was 0.18, the chromatographic logD [1] was 3.4 and the Cl int mouse [6] was 1.3 ml/min/g liver. For the same molecule, the half-life at 0.5 μM [6] was 52 min, the Cl int human [7] was 0.6 ml/min/g liver and the half-life at 0.5 μM [7] was 96 min. For the same molecule, the EC50 ([2]; read-out: Trypomastigotes EC50) was 0.03 µM, the EC50 [2, 10] was 0.0316 µM and the PFI (Property Forecast Index) was 6.4. The IC50 (T. cruzi CYP51) was over 100 µM, the “relapse day after the end of treatment” value [3] was 14 days and the EC50 [8, 13] was 0.033 ± 0.002 µM. The EC50 (Vero host cells; read-out: Vero EC50) was over 50 µM, the EC50 (Vero host cells; [11]) was over 50.1 µM and the IC50 [9] was 0.008 ± 0.001 µM. The EC50 [4, 12] was 0.0501 µM and the EC50 ([4]; read-out: Amastigotes EC50) was 0.05 µM.

With `COc1cc(Cl)ccc1-c1c(C)[nH]c2nc(N)nc(C)c12` [Compound 3, 5-(4-Chloro-2-methoxyphenyl)-4,6-dimethyl-7H-pyrrolo[2,3-d]pyrimidin-2-amine] the fraction unbound at 4 h, 2 μM [5] was 0.03, the chromatographic logD [1] was 4.2 and the Cl int mouse [6] was 1.4 ml/min/g liver. It also gave a half-life at 0.5 μM [6] of 48 min, a Cl int human [7] of 0.4 ml/min/g liver and a half-life at 0.5 μM [7] of over 139 min. It also gave an EC50 ([2]; read-out: Trypomastigotes EC50) of 0.01 µM, an EC50 [2, 10] of 0.0126 µM and a PFI (Property Forecast Index) of 7.2. For the same molecule, the IC50 (T. cruzi CYP51) was over 100 µM, the “relapse day after the end of treatment” value [3] was 14 days and the EC50 ([8]; read-out: EC50 wild-type) was 0.0046 ± 0.0002 µM. For the same molecule, the EC50 ([8]; read-out: EC50 wild-type epimastigotes) was 0.0113 ± 0.0005 µM, the EC50 [8, 13] was 0.006 ± 0.0002 µM and the EC50 (Vero host cells; read-out: Vero EC50) was over 50 µM. For the same molecule, the EC50 (Vero host cells; [11]) was over 50.1 µM, the IC50 [9] was 0.002 ± 0.0003 µM and the EC50 [4, 12] was 0.01 µM. The EC50 ([4]; read-out: Amastigotes EC50) was 0.01 µM.

In the case of `COc1ccc(-c2c(C)[nH]c3nc(N)nc(C)c23)c(OC)c1` [Compound 4, 5-(2,4-Dimethoxyphenyl)-4,6-dimethyl-7H-pyrrolo[2,3-d]pyrimidin-2-amine], the fraction unbound at 4 h, 2 μM [5] is reported as 0.22, the chromatographic logD [1] is reported as 3.1 and the Cl int mouse [6] is reported as 2.0 ml/min/g liver. For the same molecule, the half-life at 0.5 μM [6] was 33 min, the Cl int human [7] was 0.8 ml/min/g liver and the half-life at 0.5 μM [7] was 66 min. The EC50 ([2]; read-out: Trypomastigotes EC50) was 0.05 µM, the EC50 [2, 10] was 0.0501 µM and the PFI (Property Forecast Index) was 6.1. The IC50 (T. cruzi CYP51) was over 100 µM, the EC50 [8, 13] was 0.088 ± 0.003 µM and the EC50 (Vero host cells; read-out: Vero EC50) was over 50 µM. The EC50 (Vero host cells; [11]) was over 50.1 µM, the IC50 [9] was 0.006 ± 0.001 µM and the EC50 [4, 12] was 0.0794 µM. The EC50 ([4]; read-out: Amastigotes EC50) was 0.08 µM.
